Data on 138 molecules can be found in a melting point compilation (Tetko et al.).

For the data set the following is noted: a range is the spread between reports.

Turning to `Cc1cc(O)c2ccccc2n1`, the melting point (commonly the temperature, or range, at which the solid turns liquid) was in the range of 234 to 235 °C. Molecule `Nc1cccc2cccnc12` gave a melting point of 65 to 70 °C.

`NCCN` registered a melting point of 8.5 to 11.1 °C. `CC(C)COC(=O)C(C)C` registered a melting point of -81 to -80 °C. `Cc1ccc(C(=O)c2ccccc2)cc1C` displayed a melting point of 46 to 47.5 °C.

On to `Oc1cc(Cl)c(Cl)cc1Cl`, for which the melting point was in the range of 65.5 to 69 °C.

With `C=C=C(C)C`, the melting point is -114 °C. As for `C1=CC2C=CC1C2`, the figure is -20 to -19.1 °C. `Cc1ccc(O)c(C(C)(C)C)c1` registered a melting point of 51.5 to 52 °C. `OCCCCCCCCCCCCO`: the melting point is 81.3 to 83 °C. As for `C#C`, the figure is -80.8 to -80.7 °C. As for `CC(C)(C)C1CCC(=O)CC1`, the figure is 48.5 to 49 °C; as for `O=C(O)c1cc(-c2ccc(F)cc2F)ccc1O`, 210 to 216 °C; as for `N#Cc1ccc2c(c1)OCO2`, 93 to 94 °C. Take `Nc1ccc2ccc3cccc4ccc1c2c34`: the melting point is 116 to 118 °C. Then `CCCCCCCCCCCCCCCC(=O)OCC(COC(=O)CCCCCCCCCCCCCCC)OC(=O)CCCCCCCCCCCCCCC`, with 62 to 66.5 °C; and `COc1cccc(C#N)c1OC`, with 44.5 to 46 °C; and `c1ccc(C(c2ccccc2)c2ccccc2)cc1`, with 93 to 94 °C.

Consider `Brc1ccc(Br)c(Br)c1`, for which the melting point was 42 to 44.5 °C. Then `COC(=O)c1ccc(O)cc1`, with 127 to 131 °C; and `O=C(O)CCc1c[nH]c2ccccc12`, with 134 °C; and `Cc1ccccc1-c1ccccc1`, with -0.2 to 0 °C. Then `N#CCCC#N`, with 54 to 56 °C; and `C1CCCCC1`, with 6.45 to 7 °C. As for `CCC=O`, the figure is -81 to -80 °C; as for `ClC(Cl)Cl`, -63.6 to -63 °C. The molecule `Cc1cncc(C)c1` came in with a melting point of -9 to -6.6 °C.

For the molecule `Cc1cccnc1`, the melting point is -18.1 to -18 °C.

With `CCCCOC(=O)CCC`, the melting point is -92 to -91.5 °C. Regarding `CCN1CCOCC1`, the melting point is -64 to -63 °C. As for `O=C(Cl)N(c1ccccc1)c1ccccc1`, the figure is 83 to 84 °C. Then `CCCCCCCCC#N`, with -34.2 to -34 °C; and `O=[N+]([O-])c1ccc2nc[nH]c2c1`, with 208 °C; and `NCCCCCCN`, with 39 to 41.5 °C. Take `Clc1ccc(C(c2ccc(Cl)cc2)C(Cl)Cl)cc1`: the melting point fell in the range of 109 to 110 °C. `OCC(Cl)(Cl)Cl` displayed a melting point of 18 to 19 °C. Then `ClCc1ccc(Cl)cc1`, with 28 to 31 °C. In turn, `O=C(OC(=O)c1ccccc1)c1ccccc1` registered a melting point of 42 to 42.5 °C. Molecule `Clc1ccc(Cl)nc1` returned a melting point of 60.5 to 61 °C. The molecule `COc1cc(NS(=O)(=O)c2ccc(N)cc2)nc(OC)n1` gave a melting point of 204 °C.

As to `CCOC(=O)c1ccc(C(=O)OCC)cc1`, the melting point was in the range of 44 to 45 °C. Then `O=[N+]([O-])c1cc(F)ccc1O`, with 73 to 75 °C; and `O=C1c2c(O)cccc2Cc2cccc(O)c21`, with 179 to 181 °C. `Cc1ccc([N+](=O)[O-])cc1` showed a melting point of 51 to 54 °C. As for `CCOc1ccc(C=O)cc1OC`, the figure is 61 to 64.5 °C; as for `CC(C)(C)CCC(C)(C)C`, -13 to -12.6 °C; as for `CCC1(c2ccccc2)C(=O)NC(=O)NC1=O`, 174 to 176 °C. Then `Nc1cc(Cl)c(O)c(Cl)c1`, with 167 to 168 °C. As for `NC(=O)c1ccccc1O`, the figure is 140 to 142 °C. With `CC[Si](CC)(CC)CC`, the melting point was -82.5 to -82 °C.

`O=Cc1ccccc1F`: the melting point is -45 to -44.5 °C. As for `CCCCCCI`, the melting point was -75 to -74.2 °C. Then `O=S(=O)(Cl)Cl`, with -54.1 to -54 °C. The molecule `CCC1(C2=CCCCC2)C(=O)NC(=O)NC1=O` had a melting point of 172 to 173 °C.

In turn, `Nc1c(Br)cc(Br)cc1Br` registered a melting point of 120 to 122 °C. With `BrCc1ccc2ccccc2c1`, the melting point was in the range of 53 to 56 °C.

`CC(=O)c1cccc(Br)c1` gave a melting point of 7.5 to 8 °C. As for `Nc1ccccc1N`, the figure is 101 to 102 °C; as for `N#CCc1ccc(O)cc1`, 69 to 71 °C; as for `O=C1CCC(N2C(=O)c3ccccc3C2=O)C(=O)N1` (stereo not drawn), 270 to 275 °C.

The molecule `O=C(O)COc1ccc(Cl)cc1` came in with a melting point of 159 to 164 °C. In the case of `Nc1ccc2[nH]ncc2c1`, the melting point was 175 to 176 °C.

With `OCCCCCCCO`, the melting point is 18 to 22.5 °C. In turn, `O=C1c2ccccc2C(=O)N1CCBr` registered a melting point of 82 to 82.5 °C. The molecule `CNC(=O)Oc1cccc2c1OC(C)(C)C2` registered a melting point of 151 to 152 °C. `CCCCCCCCC(=O)CC`: the melting point fell in the range of 9 to 13 °C. As for `N#CCC(=O)c1ccccc1`, the figure is 80.5 to 83 °C. Regarding `CC(Cl)Cl`, the melting point is -97 to -96.9 °C. As for `COc1ccccc1`, the figure is -37.5 to -37 °C. For `N#CCc1ccc([N+](=O)[O-])cc1`, the melting point lay within 116 to 117 °C.

`Nc1nc(N)nc(-c2ccccc2)n1` came in with a melting point of 226 to 227 °C.

In turn, `CN(C)c1cccc(O)c1` showed a melting point of 82 to 86 °C. The molecule `CCCC(C)(C)C(C)C` yielded a melting point of -117 °C. Molecule `O=C(Cl)c1ccco1` returned a melting point of -2 to -1 °C. Then `Cc1n[nH]c(=S)[nH]c1=O`, with 218 to 220 °C; and `CCC1=CCCC1`, with -118 °C. Regarding `CC1=C(/C=C/C(C)=C/C=C/C(C)=C/C=C/C=C(C)/C=C/C=C(C)/C=C/C2=C(C)CCCC2(C)C)C(C)(C)CCC1`, the melting point is 178 to 183 °C. With `ClC(Cl)(Cl)c1ccccc1`, the melting point was -8 to -4 °C. Then `CC(=O)OC1CCC2(C)C(CC(=O)C3C4CCC(=O)C4(C)CCC32)C1` (stereo not drawn), with 164 to 165 °C; and `CCCCCCCCCCCCCC`, with 5.5 to 6 °C. The molecule `Clc1c(Cl)c(Cl)c(Cl)c(Cl)c1Cl` yielded a melting point of 228 to 232 °C. As for `COC=O`, the figure is -100 to -99 °C; as for `C=Cc1cccc(C(=O)O)c1`, 95 to 96 °C. As for `c1cc2c3c(c1)ccc1cccc(c13)C2`, the figure is 114 to 116 °C; as for `C=CCC1(C(C)C)C(=O)NC(=O)NC1=O`, 141 to 143 °C. Then `Cc1ccc(C#N)cc1`, with 28 to 29.5 °C. `O=C[C@H](O)[C@@H](O)[C@@H](O)[C@H](O)CO` returned a melting point of 166 to 167 °C. Consider `CC(=O)c1ccc(-c2ccccc2)cc1`, for which the melting point lay within 120 to 122 °C.

In the case of `BrC(c1ccccc1)(c1ccccc1)c1ccccc1`, the melting point lay in the range of 153 to 154 °C.

On to `C=CC(C)(C)CC`, for which the melting point is -134 °C. Take `Cc1ccc(CCl)cc1`: the melting point lay within 4 to 5 °C. Then `COc1cccc(Cl)c1Cl`, with 31 to 32 °C; and `C=Cn1c2ccccc2c2ccccc21`, with 63 to 65 °C.

In turn, `COc1cc(N)ccc1C` gave a melting point of 56.5 to 58 °C. As for `CS(=O)(=O)c1ccc(C(=O)O)cc1`, the figure is 270 to 273 °C; as for `C#CCCC(=O)O`, 56 to 57.7 °C; as for `CC(=O)c1ccc(C(F)(F)F)cc1`, 31 to 32 °C.

`NNS(=O)(=O)c1ccccc1` yielded a melting point of 102 to 103 °C. Then `COc1ccc(C(=O)O)cc1OC`, with 180 to 181 °C; and `COc1ccc(/N=N/c2ccccc2)cc1`, with 53 to 56 °C. Molecule `CC(C)C(C)(C)C(C)C` displayed a melting point of -102 °C.

In turn, `Oc1ccc(Cl)cc1Cc1ccccc1` had a melting point of 48 to 48.5 °C.

On to `Sc1nc2ccccc2[nH]1`, for which the melting point stood at 298 °C. Then `COc1ccc(OC)c(C)c1`, with 15 to 20 °C; and `Cc1ccc2c(c1N)C(=O)c1ccccc1C2=O`, with 205 to 206 °C. As for `C=CCCC`, the figure is -165 to -162 °C.

In turn, `O=c1cccccc1O` came in with a melting point of 50.8 to 53 °C. Molecule `Cc1cc(O)ccc1Cl` had a melting point of 66 to 67 °C. Then `N#Cc1ccccc1Br`, with 55 to 55.5 °C; and `O=C(O)c1cccc(O)c1`, with 202 to 203 °C; and `C=CC(C)CC` (stereo not drawn), with -154 to -153 °C. The molecule `CC(C)=O` came in with a melting point of -95 to -94 °C.

The molecule `O=C(O)C(F)(F)F` showed a melting point of -15.2 to -15 °C.

Take `Brc1cscc1Br`: the melting point was in the range of 4.5 to 5 °C. As for `CC(=O)c1cccs1`, the figure is 10 to 10.5 °C; as for `SCCS`, -41.2 to -41 °C; as for `CCC(=O)c1ccc(Br)cc1`, 46 to 48 °C. Then `CC(C)c1ccc(C(=O)O)cc1`, with 118 to 119 °C.

Regarding `CCOC(=O)CCCCC(=O)OCC`, the melting point was -20 to -18 °C.

For `COc1cc(-c2ccc(N)c(OC)c2)ccc1N`, the melting point is 136 to 137 °C. As for `CCC1CCCC1`, the figure is -138 °C.

The molecule `CCC#N` had a melting point of -93 to -92 °C. As for `COC(=O)c1cccc(Br)c1`, the figure is 32 to 33 °C; as for `CC(C)(C)CO`, 50 to 54 °C; as for `CCCCCCCCCCCCCCCCCCCCCCCCCCCC`, 62 to 64.5 °C. As for `O=C(c1ccccc1)c1cccc(Cl)c1`, the figure is 82 to 83 °C; as for `CCC(Br)CBr` (stereo not drawn), -65.4 to -65 °C; as for `Cc1c(C)c(C)c(C)c(C)c1C`, 164 to 168 °C. As to `N#CSCc1ccccc1`, the melting point fell in the range of 42 to 43 °C. Then `Oc1ccc2ccccc2c1/N=N/c1ccccc1`, with 132 to 134 °C; and `ClCc1ccccc1CCl`, with 55 to 56 °C. As for `COc1cc([N+](=O)[O-])ccc1N`, the figure is 140 to 141 °C. As for `O=[N+]([O-])c1cccc(Cl)c1`, the figure is 43 to 46 °C; as for `COc1cc(CNC(=O)CCCCC=CC(C)C)ccc1O`, 65 to 66 °C. Turning to `CC1CC2C3CCC4=CC(=O)C=CC4(C)C3(F)C(O)CC2(C)C1(O)C(=O)CO` (stereo not drawn), the melting point was 262 to 263 °C. As for `c1ccc2c(c1)OCCOCCOCCOCCO2`, the figure is 79 to 80 °C. With `Oc1cc2ccccc2cc1O`, the melting point lay within 162 to 164 °C. Then `C=CCOc1nc(OCC=C)nc(OCC=C)n1`, with 26 to 27 °C.
